# Measured values from patent US11231416B2, “Virus-like particle (VLP) based small molecule-protein interaction trap” (VIB VZW, priority 2015, dated 2022).
# Columns and labels:
# [1] = molecular target: T1, HMGCR (Homo sapiens, UniProt P04035); experiment: Viral trapping in VLPs, MS analysis; assay type: binding
# T1 construct: endogenous in cells; host or cells: HEK293T
# [2] = molecular target: T2, SQLE (Homo sapiens, UniProt Q14534); experiment: Viral trapping in VLPs, MS analysis; assay type: binding
# T2 construct: endogenous in cells; host or cells: HEK293T
# T2 sequence (Q14534 whole entry): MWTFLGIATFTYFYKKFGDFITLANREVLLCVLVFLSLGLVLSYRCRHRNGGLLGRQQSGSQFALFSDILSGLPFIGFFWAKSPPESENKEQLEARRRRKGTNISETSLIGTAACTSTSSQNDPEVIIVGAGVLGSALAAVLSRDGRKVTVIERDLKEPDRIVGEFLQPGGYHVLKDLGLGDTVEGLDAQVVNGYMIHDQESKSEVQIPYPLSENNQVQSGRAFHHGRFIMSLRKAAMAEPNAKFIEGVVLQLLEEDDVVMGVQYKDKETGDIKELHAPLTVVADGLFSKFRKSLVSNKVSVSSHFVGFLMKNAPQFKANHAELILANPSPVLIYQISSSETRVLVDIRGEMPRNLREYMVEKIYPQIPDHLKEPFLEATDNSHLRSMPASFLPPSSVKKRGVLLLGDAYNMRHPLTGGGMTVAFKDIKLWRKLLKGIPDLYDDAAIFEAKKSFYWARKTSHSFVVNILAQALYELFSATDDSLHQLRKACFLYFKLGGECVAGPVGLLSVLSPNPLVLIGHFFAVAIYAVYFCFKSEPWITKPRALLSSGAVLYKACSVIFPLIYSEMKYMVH
# Method: (§1) To screen for simvastatin binders, cells were transfected with the GAG-eDHFR construct and then treated immediately after transfection with the MTX-PEG6-simvastatin molecule. A total of five biological repeats were performed together with four DMSO control experiments. The list of candidate interactors was obtained after removal of all proteins (including proteins identified with a single peptide) that were found in 19 control samples, the four DMSO samples and the other small molecule samples (e.g., the protein list of the five simvastatin samples was challenged against a total of 29 samples). The control samples are a number of successful Virotrap experiments using unrelated proteins to generate a list of proteins that can be considered background proteins, and that can be subtracted from the protein list obtained for the actual samples.
# (§2) For each small molecule condition, two lists of proteins (annotated by their gene name) were reported. The left part of the tables (“All proteins”) contains all unique protein identifications (thus also proteins identified with a single peptide) obtained after removal of the background proteins. The right part of the tables (“Proteins identified with >1 peptide”) contains only the proteins identified with high confidence (at least two modified peptide identifications for each protein). Some recurrent proteins that were identified in multiple experiments with a single peptide are removed from this list (e.g., PYGM identified with low confidence in two repeat experiments).
# [3] = molecular target: T3, UBIAD1 (Homo sapiens, UniProt Q9Y5Z9); experiment: Viral trapping in VLPs, MS analysis; assay type: binding
# T3 construct: endogenous in cells; host or cells: HEK293T
# T3 sequence (Q9Y5Z9 whole entry): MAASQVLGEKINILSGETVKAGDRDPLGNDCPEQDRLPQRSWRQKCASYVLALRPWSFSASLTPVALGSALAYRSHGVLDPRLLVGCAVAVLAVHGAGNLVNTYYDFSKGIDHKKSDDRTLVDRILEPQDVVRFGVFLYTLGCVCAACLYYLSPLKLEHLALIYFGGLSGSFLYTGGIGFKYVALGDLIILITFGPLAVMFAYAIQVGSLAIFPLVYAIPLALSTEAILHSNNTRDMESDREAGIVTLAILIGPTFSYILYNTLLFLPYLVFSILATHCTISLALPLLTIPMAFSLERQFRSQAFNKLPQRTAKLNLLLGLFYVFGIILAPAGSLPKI
# Method: as §1, §2
# [4] = molecular target: T4, SARM1 (Homo sapiens, UniProt Q6SZW1); experiment: Viral trapping in VLPs, MS analysis; assay type: binding
# T4 construct: endogenous in cells; host or cells: HEK293T
# [5] = tested on: PYGM; experiment: Viral trapping in VLPs, MS analysis; assay type: binding, human; settings: all proteins (incl. low confidence identifications)
# [6] = molecular target: T5, AKT3 (Homo sapiens, UniProt Q9Y243); experiment: Viral trapping in VLPs, MS analysis; assay type: binding; settings: all proteins (incl. low confidence identifications)
# T5 construct: endogenous in cells; host or cells: HEK293T
# [7] = molecular target: T6, ATP6V0C (Homo sapiens, UniProt P27449); experiment: Viral trapping in VLPs, MS analysis; assay type: binding; settings: all proteins (incl. low confidence identifications)
# T6 construct: endogenous in cells; host or cells: HEK293T
# T6 sequence (P27449 whole entry): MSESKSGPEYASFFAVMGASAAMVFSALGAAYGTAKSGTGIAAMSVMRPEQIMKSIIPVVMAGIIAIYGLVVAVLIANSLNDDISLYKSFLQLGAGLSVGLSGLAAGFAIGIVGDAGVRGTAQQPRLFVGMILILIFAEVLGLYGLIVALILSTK
# [8] = molecular target: T7, CNPY2 (Homo sapiens, UniProt Q9Y2B0); experiment: Viral trapping in VLPs, MS analysis; assay type: binding; settings: all proteins (incl. low confidence identifications)
# T7 construct: endogenous in cells; host or cells: HEK293T
# [9] = molecular target: T8, CTU1 (Homo sapiens, UniProt Q7Z7A3); experiment: Viral trapping in VLPs, MS analysis; assay type: binding
# T8 construct: endogenous in cells; host or cells: HEK293T
# T8 sequence (Q7Z7A3 whole entry): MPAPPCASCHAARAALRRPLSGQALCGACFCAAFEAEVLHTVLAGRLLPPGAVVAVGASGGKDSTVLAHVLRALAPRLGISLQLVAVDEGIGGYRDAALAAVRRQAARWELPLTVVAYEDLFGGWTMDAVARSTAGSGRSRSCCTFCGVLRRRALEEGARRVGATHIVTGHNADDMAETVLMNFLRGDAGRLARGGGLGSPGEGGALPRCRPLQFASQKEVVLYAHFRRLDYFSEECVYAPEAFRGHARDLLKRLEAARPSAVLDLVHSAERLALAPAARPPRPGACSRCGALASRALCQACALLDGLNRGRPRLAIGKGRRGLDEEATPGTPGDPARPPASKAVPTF
# [10] = molecular target: T9, DBI (Homo sapiens, UniProt P07108); experiment: Viral trapping in VLPs, MS analysis; assay type: binding; settings: all proteins (incl. low confidence identifications)
# T9 construct: endogenous in cells; host or cells: HEK293T
# [11] = tested on: DDTL; experiment: Viral trapping in VLPs, MS analysis; assay type: binding, human; settings: all proteins (incl. low confidence identifications)
# [12] = tested on: EIF1AY; experiment: Viral trapping in VLPs, MS analysis; assay type: binding, human; settings: all proteins (incl. low confidence identifications)
# [13] = molecular target: T10, FABP1 (Homo sapiens, UniProt P07148); experiment: Viral trapping in VLPs, MS analysis; assay type: binding; settings: all proteins (incl. low confidence identifications)
# T10 construct: endogenous in cells; host or cells: HEK293T
# [14] = molecular target: T11, FHL1 (Homo sapiens, UniProt Q13642); experiment: Viral trapping in VLPs, MS analysis; assay type: binding; settings: all proteins (incl. low confidence identifications)
# T11 construct: endogenous in cells; host or cells: HEK293T
# [15] = molecular target: T12, GALNT1 (Homo sapiens, UniProt Q10472); experiment: Viral trapping in VLPs, MS analysis; assay type: binding; settings: all proteins (incl. low confidence identifications)
# T12 construct: endogenous in cells; host or cells: HEK293T
# [16] = molecular target: T13, GINS1 (Homo sapiens, UniProt Q14691); experiment: Viral trapping in VLPs, MS analysis; assay type: binding; settings: all proteins (incl. low confidence identifications)
# T13 construct: endogenous in cells; host or cells: HEK293T
# T13 sequence (Q14691 whole entry): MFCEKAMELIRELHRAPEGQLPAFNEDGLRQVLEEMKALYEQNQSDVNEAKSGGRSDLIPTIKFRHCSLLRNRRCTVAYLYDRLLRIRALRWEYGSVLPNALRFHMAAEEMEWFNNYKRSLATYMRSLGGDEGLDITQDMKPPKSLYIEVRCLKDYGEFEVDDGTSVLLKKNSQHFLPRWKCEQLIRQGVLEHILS
# [17] = molecular target: T14, KIAA0319L (Homo sapiens, UniProt Q8IZA0); experiment: Viral trapping in VLPs, MS analysis; assay type: binding
# T14 construct: endogenous in cells; host or cells: HEK293T
# T14 sequence (Q8IZA0 whole entry): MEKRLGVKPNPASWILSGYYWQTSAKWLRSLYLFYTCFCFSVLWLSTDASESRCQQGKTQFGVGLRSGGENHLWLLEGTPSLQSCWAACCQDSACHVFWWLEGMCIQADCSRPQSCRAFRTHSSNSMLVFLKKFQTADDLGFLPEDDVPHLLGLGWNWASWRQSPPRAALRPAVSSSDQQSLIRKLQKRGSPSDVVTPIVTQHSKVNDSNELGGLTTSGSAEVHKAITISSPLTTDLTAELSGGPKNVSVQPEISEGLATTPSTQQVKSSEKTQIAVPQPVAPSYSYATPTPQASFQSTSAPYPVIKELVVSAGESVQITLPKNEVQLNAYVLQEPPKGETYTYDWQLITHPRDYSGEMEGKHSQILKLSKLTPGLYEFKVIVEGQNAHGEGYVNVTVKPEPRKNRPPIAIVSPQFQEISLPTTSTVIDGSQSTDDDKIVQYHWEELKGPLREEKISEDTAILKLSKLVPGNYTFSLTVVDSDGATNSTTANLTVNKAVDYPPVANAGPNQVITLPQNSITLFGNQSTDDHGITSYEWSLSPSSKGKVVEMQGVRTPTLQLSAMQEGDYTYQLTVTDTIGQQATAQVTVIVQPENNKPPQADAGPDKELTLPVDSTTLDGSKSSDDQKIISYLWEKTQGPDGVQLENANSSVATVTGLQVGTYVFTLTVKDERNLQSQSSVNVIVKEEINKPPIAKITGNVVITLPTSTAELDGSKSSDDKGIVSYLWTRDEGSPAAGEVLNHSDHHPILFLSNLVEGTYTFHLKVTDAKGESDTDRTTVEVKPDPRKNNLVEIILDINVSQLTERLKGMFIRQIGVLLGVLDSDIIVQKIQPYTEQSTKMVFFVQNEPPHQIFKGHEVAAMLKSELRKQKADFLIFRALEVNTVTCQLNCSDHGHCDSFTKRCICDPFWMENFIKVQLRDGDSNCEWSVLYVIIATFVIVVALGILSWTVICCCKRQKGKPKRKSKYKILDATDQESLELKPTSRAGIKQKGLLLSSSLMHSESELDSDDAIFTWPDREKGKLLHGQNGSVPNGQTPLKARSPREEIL
# [18] = molecular target: T15, KRT6B (Homo sapiens, UniProt P04259); experiment: Viral trapping in VLPs, MS analysis; assay type: binding
# T15 construct: endogenous in cells; host or cells: HEK293T
# T15 sequence (P04259 whole entry): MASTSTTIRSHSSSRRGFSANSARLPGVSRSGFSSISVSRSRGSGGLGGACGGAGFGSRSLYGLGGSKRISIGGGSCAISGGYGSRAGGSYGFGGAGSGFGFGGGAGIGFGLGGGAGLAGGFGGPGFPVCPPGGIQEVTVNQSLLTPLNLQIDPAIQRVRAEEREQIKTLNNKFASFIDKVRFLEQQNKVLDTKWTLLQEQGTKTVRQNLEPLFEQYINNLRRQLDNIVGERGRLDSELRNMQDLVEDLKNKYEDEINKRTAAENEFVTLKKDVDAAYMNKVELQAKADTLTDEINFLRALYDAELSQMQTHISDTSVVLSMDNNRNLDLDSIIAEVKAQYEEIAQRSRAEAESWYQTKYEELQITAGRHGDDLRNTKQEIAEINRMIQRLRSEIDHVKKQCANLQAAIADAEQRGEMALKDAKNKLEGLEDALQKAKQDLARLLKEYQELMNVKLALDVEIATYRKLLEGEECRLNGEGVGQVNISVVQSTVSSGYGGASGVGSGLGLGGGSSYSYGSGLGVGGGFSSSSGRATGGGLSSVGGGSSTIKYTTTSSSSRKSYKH
# [19] = molecular target: T16, LAMTOR5 (Homo sapiens, UniProt O43504); experiment: Viral trapping in VLPs, MS analysis; assay type: binding; settings: all proteins (incl. low confidence identifications)
# T16 construct: endogenous in cells; host or cells: HEK293T
# [20] = molecular target: T17, LNPEP (Homo sapiens, UniProt Q9UIQ6); experiment: Viral trapping in VLPs, MS analysis; assay type: binding; settings: all proteins (incl. low confidence identifications)
# T17 construct: endogenous in cells; host or cells: HEK293T
# [21] = tested on: LOC512271; experiment: Viral trapping in VLPs, MS analysis; assay type: binding; settings: all proteins (incl. low confidence identifications)
# [22] = tested on: LOC524129; experiment: Viral trapping in VLPs, MS analysis; assay type: binding; settings: all proteins (incl. low confidence identifications)
# [23] = molecular target: T18, MOXD1 (Homo sapiens, UniProt Q6UVY6); experiment: Viral trapping in VLPs, MS analysis; assay type: binding; settings: all proteins (incl. low confidence identifications)
# T18 construct: endogenous in cells; host or cells: HEK293T
# [24] = molecular target: T19, PDIA4 (Homo sapiens, UniProt P13667); experiment: Viral trapping in VLPs, MS analysis; assay type: binding
# T19 construct: endogenous in cells; host or cells: HEK293T
# T19 sequence (P13667 21-645): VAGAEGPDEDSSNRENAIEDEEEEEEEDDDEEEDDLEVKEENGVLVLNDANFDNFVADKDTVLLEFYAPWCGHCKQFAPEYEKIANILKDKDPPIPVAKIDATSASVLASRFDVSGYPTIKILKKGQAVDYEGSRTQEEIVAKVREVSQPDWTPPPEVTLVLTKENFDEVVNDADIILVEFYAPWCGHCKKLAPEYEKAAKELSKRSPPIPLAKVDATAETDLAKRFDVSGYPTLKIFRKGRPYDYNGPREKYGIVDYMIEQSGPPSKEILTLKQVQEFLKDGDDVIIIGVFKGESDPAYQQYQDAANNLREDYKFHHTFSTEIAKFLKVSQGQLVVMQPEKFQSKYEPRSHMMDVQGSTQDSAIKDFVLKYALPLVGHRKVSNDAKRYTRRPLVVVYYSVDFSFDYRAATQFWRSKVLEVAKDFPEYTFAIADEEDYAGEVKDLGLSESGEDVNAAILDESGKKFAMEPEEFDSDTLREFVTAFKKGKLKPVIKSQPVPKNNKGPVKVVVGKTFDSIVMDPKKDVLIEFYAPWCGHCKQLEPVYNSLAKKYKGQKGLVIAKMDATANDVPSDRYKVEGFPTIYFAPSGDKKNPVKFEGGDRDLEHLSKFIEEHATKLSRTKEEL
# [25] = molecular target: T20, PRKCSH (Homo sapiens, UniProt P14314); experiment: Viral trapping in VLPs, MS analysis; assay type: binding; settings: all proteins (incl. low confidence identifications)
# T20 construct: endogenous in cells; host or cells: HEK293T
# [26] = molecular target: T21, RAB4A (Homo sapiens, UniProt P20338); experiment: Viral trapping in VLPs, MS analysis; assay type: binding; settings: all proteins (incl. low confidence identifications)
# T21 construct: endogenous in cells; host or cells: HEK293T
# [27] = tested on: RBP4; experiment: Viral trapping in VLPs, MS analysis; assay type: binding, human; settings: all proteins (incl. low confidence identifications)
# [28] = molecular target: T22, SBDS (Homo sapiens, UniProt Q9Y3A5); experiment: Viral trapping in VLPs, MS analysis; assay type: binding; settings: all proteins (incl. low confidence identifications)
# T22 construct: endogenous in cells; host or cells: HEK293T
# [29] = molecular target: T23, SH3GL2 (Homo sapiens, UniProt Q99962); experiment: Viral trapping in VLPs, MS analysis; assay type: binding; settings: all proteins (incl. low confidence identifications)
# T23 construct: endogenous in cells; host or cells: HEK293T
# [30] = molecular target: T24, SLC17A1 (Homo sapiens, UniProt Q14916); experiment: Viral trapping in VLPs, MS analysis; assay type: binding; settings: all proteins (incl. low confidence identifications)
# T24 construct: endogenous in cells; host or cells: HEK293T
# [31] = molecular target: T25, SLC46A1 (Homo sapiens, UniProt Q96NT5); experiment: Viral trapping in VLPs, MS analysis; assay type: binding; settings: all proteins (incl. low confidence identifications)
# T25 construct: endogenous in cells; host or cells: HEK293T
# [32] = molecular target: T26, TMED5 (Homo sapiens, UniProt Q9Y3A6); experiment: Viral trapping in VLPs, MS analysis; assay type: binding; settings: all proteins (incl. low confidence identifications)
# T26 construct: endogenous in cells; host or cells: HEK293T
# [33] = molecular target: T27, TMED9 (Homo sapiens, UniProt Q9BVK6); experiment: Viral trapping in VLPs, MS analysis; assay type: binding; settings: all proteins (incl. low confidence identifications)
# T27 construct: endogenous in cells; host or cells: HEK293T
# [34] = molecular target: T28, VAMP4 (Homo sapiens, UniProt O75379); experiment: Viral trapping in VLPs, MS analysis; assay type: binding; settings: all proteins (incl. low confidence identifications)
# T28 construct: endogenous in cells; host or cells: HEK293T
# [35] = molecular target: T29, VPS37D (Homo sapiens, UniProt Q86XT2); experiment: Viral trapping in VLPs, MS analysis; assay type: binding; settings: all proteins (incl. low confidence identifications)
# T29 construct: endogenous in cells; host or cells: HEK293T
# T29 sequence (Q86XT2 whole entry): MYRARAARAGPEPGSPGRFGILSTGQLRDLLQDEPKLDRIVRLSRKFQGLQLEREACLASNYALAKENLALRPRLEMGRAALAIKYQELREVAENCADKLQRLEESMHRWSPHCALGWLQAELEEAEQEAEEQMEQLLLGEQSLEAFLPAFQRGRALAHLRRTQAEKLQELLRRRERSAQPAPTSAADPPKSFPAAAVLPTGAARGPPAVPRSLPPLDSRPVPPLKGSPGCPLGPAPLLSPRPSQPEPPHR
# [36] = molecular target: T30, HSD17B4 (Homo sapiens, UniProt P51659); experiment: Binary MASPIT assay; assay type: cell-based; settings: binary MASPIT assay
# T30 construct: endogenous in cells; host or cells: HEK293T
# T30 sequence (P51659 1-736): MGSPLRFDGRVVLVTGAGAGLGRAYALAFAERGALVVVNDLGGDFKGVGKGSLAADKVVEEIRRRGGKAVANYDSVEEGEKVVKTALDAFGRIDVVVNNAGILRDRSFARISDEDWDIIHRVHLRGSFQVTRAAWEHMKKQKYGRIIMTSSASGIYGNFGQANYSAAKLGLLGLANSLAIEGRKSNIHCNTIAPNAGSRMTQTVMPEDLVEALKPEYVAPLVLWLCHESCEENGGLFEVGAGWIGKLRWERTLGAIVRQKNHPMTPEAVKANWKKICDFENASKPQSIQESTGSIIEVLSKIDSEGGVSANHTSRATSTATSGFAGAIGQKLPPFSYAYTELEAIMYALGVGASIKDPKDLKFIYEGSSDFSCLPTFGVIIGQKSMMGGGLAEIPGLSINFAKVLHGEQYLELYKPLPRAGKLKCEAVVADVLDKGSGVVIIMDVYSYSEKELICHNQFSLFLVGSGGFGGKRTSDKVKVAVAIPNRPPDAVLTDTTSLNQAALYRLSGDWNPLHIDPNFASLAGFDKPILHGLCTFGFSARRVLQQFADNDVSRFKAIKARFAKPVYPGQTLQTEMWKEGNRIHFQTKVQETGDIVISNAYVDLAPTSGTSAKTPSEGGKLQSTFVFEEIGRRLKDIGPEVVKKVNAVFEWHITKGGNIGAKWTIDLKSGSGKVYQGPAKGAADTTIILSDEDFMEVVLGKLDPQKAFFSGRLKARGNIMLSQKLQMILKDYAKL
# Method: The binding of HSD17B4 to tamoxifen was further confirmed using the MASPIT technology. The binary MASPIT assay was essentially performed as described before (Risseeuw et al., 2013). Briefly, HEK293T cells were seeded in black tissue-culture treated 96-well plates at 10.000 cells/well in 100 μl culture medium (DMEM supplemented with 10% fetal calf serum), and grown at 37° C., 8% CO2. Twenty-four hours later cells were transfected with a combination of the pCLG-eDHFR plasmid (Risseeuw et al., 2013), the pMG1-HSD17B4 construct and the pXP2d2-rPAP1-luciferase reporter (Caligiuri et al., 2006). The pMG1-HSD17B4 construct was generated by Gateway transfer of the full size HSD17B4 ORF, obtained as an entry clone in the hORFeome collection, into the Gateway compatible pMG1 prey destination vector as described earlier (Lievens et al., 2009). Twenty-four hours after transfection, cells were either left unstimulated or treated with 100 ng/ml leptin, with or without addition of MTX-PEG6-tamoxifen. Another 24 hours later, luciferase activity was assayed using the Luciferase Assay System kit (Promega).
# [37] = all proteins (incl. low confidence identifications)
# [38] = proteins identified with >1 peptide (high confidence)
# T1 sequence (P04035 whole entry): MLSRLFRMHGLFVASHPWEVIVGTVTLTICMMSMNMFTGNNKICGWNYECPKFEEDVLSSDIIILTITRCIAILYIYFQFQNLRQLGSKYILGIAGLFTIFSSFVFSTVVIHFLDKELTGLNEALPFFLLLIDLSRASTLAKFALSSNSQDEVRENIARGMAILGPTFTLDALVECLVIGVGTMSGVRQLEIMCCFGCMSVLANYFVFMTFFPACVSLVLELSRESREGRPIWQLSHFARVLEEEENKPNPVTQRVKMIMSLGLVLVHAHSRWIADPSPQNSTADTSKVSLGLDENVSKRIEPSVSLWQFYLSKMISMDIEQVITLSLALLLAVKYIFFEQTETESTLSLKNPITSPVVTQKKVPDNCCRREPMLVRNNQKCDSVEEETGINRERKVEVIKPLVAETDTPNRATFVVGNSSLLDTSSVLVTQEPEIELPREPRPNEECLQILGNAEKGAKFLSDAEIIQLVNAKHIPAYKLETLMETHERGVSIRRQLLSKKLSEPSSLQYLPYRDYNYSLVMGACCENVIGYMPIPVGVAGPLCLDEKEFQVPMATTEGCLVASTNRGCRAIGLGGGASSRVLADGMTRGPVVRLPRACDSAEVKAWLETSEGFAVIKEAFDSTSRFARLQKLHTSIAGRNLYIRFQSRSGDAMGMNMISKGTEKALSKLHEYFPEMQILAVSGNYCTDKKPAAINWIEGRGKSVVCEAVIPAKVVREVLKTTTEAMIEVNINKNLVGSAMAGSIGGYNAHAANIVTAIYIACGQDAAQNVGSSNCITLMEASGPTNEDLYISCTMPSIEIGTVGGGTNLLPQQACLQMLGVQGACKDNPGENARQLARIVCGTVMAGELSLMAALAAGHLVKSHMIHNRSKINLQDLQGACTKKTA
smiles,measurement,setting,value
CC1C=C2C=CC(C)C(CCC3CC(O)CC(=O)O3)C2C(OC(=O)C(C)(C)Cc2cn(CCOCCOCCOCCOCCOCCNC(=O)CCC(NC(=O)c3ccc(N(C)Cc4cnc5nc(N)nc(N)c5n4)cc3)C(=O)O)nn2)C1 (centres unmarked) [MTX-PEG6-simvastatin],Recurrence (x/5),[1]; [37],5 x/5
same,Recurrence (x/5),[1]; [38],5 x/5
same,Recurrence (x/5),[2]; [37],4 x/5
same,Recurrence (x/5),[2]; [38],3 x/5
same,Recurrence (x/5),[3]; [37],1 x/5
same,Recurrence (x/5),[3]; [38],1 x/5
same,Recurrence (x/5),[4]; [37],3 x/5
same,Recurrence (x/5),[4]; [38],3 x/5
same,Recurrence (x/5),[5],2 x/5
same,Recurrence (x/5),[6],1 x/5
same,Recurrence (x/5),[7],1 x/5
same,Recurrence (x/5),[8],1 x/5
same,Recurrence (x/5),[9]; [37],1 x/5
same,Recurrence (x/5),[9]; [38],1 x/5
same,Recurrence (x/5),[10],1 x/5
same,Recurrence (x/5),[11],1 x/5
same,Recurrence (x/5),[12],1 x/5
same,Recurrence (x/5),[13],1 x/5
same,Recurrence (x/5),[14],1 x/5
same,Recurrence (x/5),[15],1 x/5
same,Recurrence (x/5),[16],1 x/5
same,Recurrence (x/5),[17]; [37],1 x/5
same,Recurrence (x/5),[17]; [38],1 x/5
same,Recurrence (x/5),[18]; [37],1 x/5
same,Recurrence (x/5),[18]; [38],1 x/5
same,Recurrence (x/5),[19],1 x/5
same,Recurrence (x/5),[20],1 x/5
same,Recurrence (x/5),[21],1 x/5
same,Recurrence (x/5),[22],1 x/5
same,Recurrence (x/5),[23],1 x/5
same,Recurrence (x/5),[24]; [37],1 x/5
same,Recurrence (x/5),[24]; [38],1 x/5
same,Recurrence (x/5),[25],1 x/5
same,Recurrence (x/5),[26],1 x/5
same,Recurrence (x/5),[27],1 x/5
same,Recurrence (x/5),[28],1 x/5
same,Recurrence (x/5),[29],1 x/5
same,Recurrence (x/5),[30],1 x/5
same,Recurrence (x/5),[31],1 x/5
same,Recurrence (x/5),[32],1 x/5
same,Recurrence (x/5),[33],1 x/5
same,Recurrence (x/5),[34],1 x/5
same,Recurrence (x/5),[35],1 x/5
"CC/C(=C(\c1ccccc1)c1ccc(OCCN(C)C)cc1)c1ccccc1 [tamoxifen, reference compound]",interaction between tamoxifen and HSD17B4,[36],confirmed
